# Article PMC7881127, “Cholesterol as a modulator of cannabinoid receptor CB2 signaling” (Scientific Reports, 2021)
# “Also recorded” adds a separate entry of the source.
# How the values were obtained:
# cannabinoid receptor CB2 [1] = molecular target: T1, cannabinoid receptor CB2 (Homo sapiens, UniProt P34972); assay: [35S]GTP nucleotide exchange (GEF) G protein activation assay on CB2 in cell membrane preparations; format: biochemical; set-up: purchased PerkinElmer; Millipore ChemiScreen; Applied Cell Sciences; Signal Screen (Sf9); E. coli BL21 (DE3) and Expi293F membranes were made in house; ES111-M400UA; A318; 6110130; host or cells: CHO, CHO-K1, Sf9, Expi293F, Expi293F GNTI-, E. coli BL21 (DE3)
# Excerpt: To better understand the reason for these discrepancies, we assessed the activation of CB2 receptor by the in vitro G protein activation assay that measures the rates of nucleotide exchange on the Gα subunit of G protein (GEF assay) as described previously[33],[34]. The assay reports the rates of formation of the complex of [^35S]-GTPγS, a homolog of GTP, with the Gα subunit of G protein. Typical assay conditions require small (nanogram) quantities of the receptor protein either in cell membranes or reconstituted into lipid bilayers. The readout of the assay is the amount of the non-hydrolysable complex of Gα with [^35S]-GTPγS which, under selected experimental conditions, is proportional to the amount of activated receptor in the assay.
# Figure 3 GEF of CB2 expressed in: (a) E. coli membranes and (b) CHO membranes (Millipore EMD). 2 μg of total protein per assay. Each point represents an average of four independent measurements (n = 4). Ligands were added at a concentration of 2 μM to ensure saturation of the receptor, and G protein was added as described in “Methods”. The dotted line indicates the rates of activation of G protein in the absence of a ligand. The rates of activation with […] are set to 100%, and rates of activation in the presence of SR-144,528 to 0%.
# Figure 4 GEF on CB2 expressed in different cell lines. An amount of 2 μg of membrane protein per assay was used. Each data points represents an average of four independent measurements (n = 4) with error rates indicated by the bars. 100% represents full activation in the presence of 2 μM of CP-55,940, and 0%–with 2 μM SR-144,528.
# (§1) The subunits of G protein were expressed and purified as described previously. The nucleotide exchange assay was performed as previously described.
# cannabinoid receptor CB2 [2] = molecular target: T1, cannabinoid receptor CB2; assay: GEF G protein activation assay on purified CB2 reconstituted in liposomes; format: biochemical; set-up: E. coli construct) (cleaved yes); twin-Streptag (N); His10 (C); made in house; host or cells: E. coli BL21 (DE3) and Expi293F GNTI-
# Excerpt: To assess the possible role of post-translational modifications of CB2 on its activation by the MRI ligands, the recombinant CB2 receptor was isolated from two different expression cell lines, E. coli BL21 (DE3)[41] and Expi293F GNTI^-[42]. The protein was purified and reconstituted into lipid bilayers containing 1-palmitoyl-2-oleoyl-glycero-3-phosphocholine (POPC) and, 1-palmitoyl-2-oleoyl-sn-glycero-3-phospho-(1′-rac-glycerol) (POPG) at a molar ratio of 3/1, either supplemented or not supplemented with cholesterol, as described in “Methods”[10],[13]. We reported previously that the presence of phospholipids with a negatively charged headgroup stabilizes CB2 protein in lipid bilayers. Therefore, purified CB2 was reconstituted into POPC/POPG (3/1, mol/mol) liposomes containing 0, 20 and 40 mol% cholesterol (reported as total content of lipids) as described in “Methods”. In one case, the protein purified from E. coli cells was reconstituted into lipids extracted from brain tissue (Avanti Polar Lipids). The ratio of protein-to-lipid in the resulting samples was in the range of 1:850 to1:1100 (mol/mol). The levels of protein, and the density of ligand binding sites for receptor preparations reconstituted in liposomes with different content of cholesterol varied only slightly (Supporting Fig. 5a,b).
# Figure 7 Activation of G protein on CB2 receptor reconstituted in liposomes. Liposome composition: 75% POPC, 25% POPG and cholesterol content relative to total phospholipids as indicated, or total lipids extracted from bovine brain, as indicated. Proteins were reconstituted at a protein-to-lipid ratio in the range 1:850 to 1:1100 mol/mol. (a–d) CB2 purified from E. coli cells. (e,f) CB2 purified from Expi293F GNTI^- cells. Average values of four independent measurements are plotted (n = 4). Dotted lines represent the rates of activation of G protein in the absence of a ligand.
# Reconstitution of the purified CB2 into liposomes was performed as described earlier. Briefly, 200 μg of the purified protein was mixed with 2 mg of lipid mixture (POPC:POPG, 3:1, mol/mol without or with addition or 20 mol% or 40 mol% of cholesterol) solubilized in 1% CHAPS at a concentration of 5 mg lipid/mL, and incubated on ice for 30 min. The detergents were then removed on 4 mL Detergent Removal spin column (Pierce), according to manufacturer’s instructions. The combined filtrate containing proteoliposomes was collected, and aliquots frozen in liquid nitrogen. Frozen liposomes were stored at − 80 °C until further use. Content of protein in proteoliposomes was determined by BioRad DC assay.
# as §1
# hCB2 = molecular target: T2, hCB2 (Homo sapiens, UniProt P34972); assay: Radioligand ([3H]CP-55,940) displacement binding in hCB2-CHO-K1 cell membranes
# T2 construct: purchased PerkinElmer ES111-M400UA; host or cells: CHO-K1 cells stably transfected
# Method: The assay was performed as described previously. […] Plasma membranes were from cultured CHO-K1 cells stably transfected with human CB2R (Perkin Elmer). Two microgram plasma membrane protein was used in a 1 mL reaction mixture. Ki values were derived by computerized curve fitting and using the Cheng-Prusoff equation to account for the affinity of the radioligand, using the GraphPad Prism 8 program (GraphPad Prism Software Inc.).
# T1 sequence (P34972 whole entry): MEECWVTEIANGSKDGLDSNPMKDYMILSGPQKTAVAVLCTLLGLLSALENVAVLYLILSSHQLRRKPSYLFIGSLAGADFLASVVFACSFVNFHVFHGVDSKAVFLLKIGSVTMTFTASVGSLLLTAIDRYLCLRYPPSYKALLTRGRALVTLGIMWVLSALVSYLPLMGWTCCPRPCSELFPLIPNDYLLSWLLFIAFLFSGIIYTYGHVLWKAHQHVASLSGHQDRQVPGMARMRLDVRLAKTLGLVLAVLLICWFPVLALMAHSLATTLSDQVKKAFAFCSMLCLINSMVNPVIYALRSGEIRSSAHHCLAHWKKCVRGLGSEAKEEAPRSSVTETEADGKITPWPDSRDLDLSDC
# T2 sequence (P34972 whole entry): as above
smiles,measurement,setting,value
"CC(=O)OCCn1c(=NC(=O)C2C(C)(C)C2(C)C)sc2cc(Cl)ccc21 [MRI-2646, 2-(6-Chloro-2-((2,2,3,3-tetramethylcyclopropane-1-carbonyl)imino)benzo[d]thiazol-3(2H)-yl)ethyl acetate]",Pharmacological category in GEF assay,"cannabinoid receptor CB2 [1]; CB2 in CHO membranes (EMD Millipore), ligand 2 μM",partial inverse agonist
same,Pharmacological category in GEF assay,cannabinoid receptor CB2 [1]; CB2 in CHO membranes (PerkinElmer),neutral antagonist
same,Pharmacological category in GEF assay,cannabinoid receptor CB2 [1]; CB2 in CHO-K1 membranes (Applied Cell Sciences),partial inverse agonist
same,Pharmacological category in GEF assay,"cannabinoid receptor CB2 [1]; CB2 in E. coli BL21 (DE3) membranes (untreated), ligand 2 μM",partial agonist; also recorded: agonistic effects; also recorded: weaker agonist
same,Pharmacological category in GEF assay,cannabinoid receptor CB2 [1]; CB2 in Expi293F GNTI- membranes,partial inverse agonist
same,Pharmacological category in GEF assay,cannabinoid receptor CB2 [1]; CB2 in Expi293F membranes,partial inverse agonist
same,Pharmacological category in GEF assay,cannabinoid receptor CB2 [1]; CB2 in baculovirus infected insect Sf9 cell membranes,partial agonist
same,Pharmacological category in GEF assay,"cannabinoid receptor CB2 [1]; CHO membranes (PerkinElmer), with and without exogenous G protein",neutral antagonist
same,Pharmacological category in GEF assay,cannabinoid receptor CB2 [1]; E. coli membranes treated with 20 mM MβCD/cholesterol,neutral antagonist
same,Pharmacological category in GEF assay,cannabinoid receptor CB2 [1]; Expi293F membranes treated with 20 mM MβCD (cholesterol depleted),partial agonist
same,Pharmacological category in GEF assay,"cannabinoid receptor CB2 [1]; Expi293F membranes, with and without exogenous G protein",inverse agonist
same,Pharmacological category in GEF assay,"cannabinoid receptor CB2 [1]; Sf9 membranes, with and without exogenous G protein",partial agonist
same,Pharmacological category on CB2,cannabinoid receptor CB2 [1]; bacterial- and insect-cell membranes,partial agonist
same,Pharmacological category on CB2,cannabinoid receptor CB2 [1]; cholesterol-containing membranes,neutral antagonist or a partial inverse agonist; also recorded: either as an inverse agonist or a neutral antagonist
same,Pharmacological category on CB2,cannabinoid receptor CB2 [1]; mammalian cell membranes,inverse agonist or neutral antagonist
same,Pharmacological category on CB2,cannabinoid receptor CB2 [1]; membranes devoid of cholesterol,partial agonist
same,Pharmacological category in GEF assay,"cannabinoid receptor CB2 [2]; CB2 from E. coli, POPC/POPG liposomes devoid of cholesterol",partial agonist
same,Pharmacological category in GEF assay,"cannabinoid receptor CB2 [2]; CB2 from E. coli, liposomes with 20% or 40% cholesterol or brain lipid extract",partial inverse agonist
same,Pharmacological category in GEF assay,"cannabinoid receptor CB2 [2]; CB2 from Expi293F GNTI- (HEK) cells, liposomes with 40% of cholesterol",partial inverse agonist
same,Pharmacological category in GEF assay,"cannabinoid receptor CB2 [2]; CB2 from Expi293F GNTI- cells, liposomes without cholesterol",partial agonist
same,Ki,hCB2,0.079 ± 0.011 nM
